The test system of data set [1] is peptidase (protease type 1 from bovine pancreas). The data set can be described thus: iron chelated trimeric peptides dissolved in PBS, 1 mU of peptidase added. Conditions: 37°C, up to 2 h.
Data set [2] has the same test system. The data set can be described thus: trimeric peptides labelled with non-radioactive gallium, neutralized, 1 mU of peptidase. The following applies: 37°C.
Data set [3] shares this test system. Briefly: neutralized Ga-labelling solution with 1 mU of peptidase. Conditions: 37°C.
Data set [4] has the same test system. The data set can be described thus: PBS with 1 mU of peptidase. The following applies: 37°C, up to 2 h.
In data set [5] the test system is peptidase (protease type 1 from bovine pancreas, Sigma Aldrich). Briefly: PBS with 10 mU of peptidase. The following applies: 37°C, up to 120 min.
The nature of data set [6]: freshly prepared human serum. Conditions: 37°C, up to 4 h.
A short description of data set [7]: liver homogenate of injected mice. Conditions: BALB/c mice, up to 5 min post injection.
In data set [8] the test system is peptidase (protease type 1 from bovine pancreas). Briefly: radiolabelling solution neutralized, diluted with PBS, 10 mU of peptidase. Conditions: 37°C, up to 120 min.
In another data set the target is T1, CCK2 receptor (Homo sapiens, UniProt P32239).
T1 construct: expressed in transfected cells; host or cells: A431 human epidermoid carcinoma cells (A431-CCK2R), gift from Dr. L. Aloj
T1 sequence (P32239 1-447): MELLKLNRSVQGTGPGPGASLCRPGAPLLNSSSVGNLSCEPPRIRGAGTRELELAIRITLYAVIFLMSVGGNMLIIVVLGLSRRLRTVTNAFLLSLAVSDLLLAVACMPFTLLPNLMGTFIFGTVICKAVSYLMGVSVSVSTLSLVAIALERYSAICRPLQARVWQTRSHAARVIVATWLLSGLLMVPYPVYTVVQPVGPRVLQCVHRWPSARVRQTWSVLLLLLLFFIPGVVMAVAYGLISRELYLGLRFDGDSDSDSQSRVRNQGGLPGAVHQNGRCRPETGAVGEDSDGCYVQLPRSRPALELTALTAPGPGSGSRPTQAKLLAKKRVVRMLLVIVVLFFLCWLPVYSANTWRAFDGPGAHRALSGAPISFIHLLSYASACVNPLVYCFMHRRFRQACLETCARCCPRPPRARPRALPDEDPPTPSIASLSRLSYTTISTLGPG
The arrangement: method as in PMID 29849512. The following applies: natGa-labelled competitor; 125I-[Leu15]-Gastrin radioligand; whole A431-CCK2R cells; cited from earlier work.

Entries after “also recorded” stand apart in the source; their conditions may differ.

“3-MP^0-[D-Glu^1,desGlu^2-6]-Ala-Tyr-Gly-Trp-Met-Asp-Phe-NH2”: the cleaved bond entry in data set [1] is on record as “Tyr-Gly, major”; in data set [4] it was “Tyr-Gly, major”. Besides, the fragment found result in data set [2] is “Ga-Trimer-Met-M1; also recorded: Ga-Trimer-Met-M2; also recorded: Ga-Trimer-Met-M3”; in data set [3], “Ga-Trimer-Met-M1 (tR = 10.08 min); also recorded: Ga-Trimer-Met-M2 (tR = 8.02 min)”.

On to “3-MP^0-[D-Glu^1,desGlu^2-6]-Ala-Tyr-Gly-Trp-Met-Asp-Phe-NH2 [68Ga-Trimer-Met]”, for which the fragment found result in [5] was “^68Ga-Trimer-Met-M1 (tR = 10.14 min), major; also recorded: ^68Ga-Trimer-Met-M2 (tR = 8.09 min), major; also recorded: ^68Ga-Trimer-Met-M3 (tR = 5.68 min)”; in data set [6] it was “^68Ga-Trimer-Met-M1 (tR = 10.14 min), major; also recorded: ^68Ga-Trimer-Met-M2 (tR = 8.09 min), major”.

For “3-MP^0-[D-Glu^1,desGlu^2-6]-Ala-Tyr-Gly-Trp-Met-Asp-Phe-NH2 [^68Ga-Trimer-Met]”, the fragment found entry in data set [7] was “^68Ga-Trimer-Met-M1, major, 5 min post injection; also recorded: ^68Ga-Trimer-Met-M2, major, 5 min post injection”; in data set [8], “^68Ga-Trimer-Met-M1, major, 5 min; also recorded: ^68Ga-Trimer-Met-M2, major; also recorded: ^68Ga-Trimer-Met-M3”.

For the substance “3-MP^0-[D-Glu^1,desGlu^2-6]-Ala-Tyr-Gly-Trp-Nle-Asp-Phe-NH2”, the cleaved bond entry is “Tyr-Gly, major” in data set [1] and “Tyr-Gly, major” in data set [4]. Further, the fragment found result was “Ga-Trimer-Nle-M1; also recorded: Ga-Trimer-Nle-M2; also recorded: Ga-Trimer-Nle-M3” in data set [2] and “Ga-Trimer-Nle-M1 (tR = 10.86 min); also recorded: Ga-Trimer-Nle-M2 (tR = 8.52 min)” in data set [3].

Take “3-MP^0-[D-Glu^1,desGlu^2-6]-Ala-Tyr-Gly-Trp-Nle-Asp-Phe-NH2 [68Ga-Trimer-Nle]”: the fragment found result is listed as “^68Ga-Trimer-Nle-M1 (tR = 10.93 min), major; also recorded: ^68Ga-Trimer-Nle-M2 (tR = 8.60 min), major” in data set [5] and “^68Ga-Trimer-Nle-M1 (tR = 10.90 min), major; also recorded: ^68Ga-Trimer-Nle-M2 (tR = 8.59 min), major” in [6].

In the case of “3-MP^0-[D-Glu^1,desGlu^2-6]-Ala-Tyr-Gly-Trp-Nle-Asp-Phe-NH2 [^68Ga-Trimer-Nle]”, the fragment found result is “^68Ga-Trimer-Nle-M1, major, 5 min post injection; also recorded: ^68Ga-Trimer-Nle-M2, major, 5 min post injection” in data set [7] and “^68Ga-Trimer-Nle-M1, major, 5 min; also recorded: ^68Ga-Trimer-Nle-M2, major” in data set [8].

Broadly, the IC50 is the concentration that gives 50% inhibition. Regarding “Monomer-Met: monovalent FSC-based minigastrin conjugate: dAcFSC-mal coupled to one MG-Met-SH peptide (EAYGWMDF; D-Glu at position 1 (printed D-Glu1, desGlu2-6); N-terminal 3-mercaptopropanoyl (3-MP0) whose thiol is coupled to the maleimide of diacetyl-fusarinine C (dAcFSC-mal); C-terminal Phe amide; FSC chelate)”, the IC50 in the data set with CCK2 receptor is 9.71 ± 3.55 nM.

The values are drawn from publication PMC6066219 (PLoS ONE, 2018).
